Results reported in US6916970B2, “Transgenic plants comprising antifungal polypeptides from alfalfa and methods for controlling plant pathogenic fungi” (Monsanto Technology, LLC, priority 1996, dated 2005).

Assays:
[1] = tested on: Fusarium culmorum; test: Inhibition of fungal hyphal growth (microscopic hyphal length assay); format: cell-based; conditions: F. culmorum
Method: (§1) The antifungal activity of AlfAFP1 (SEQ ID NO:2) is expressed as the concentration in μg/ml required to cause 50% inhibition of fungal hyphal growth (IC50). Percent fungal hyphal growth inhibition is defined as […] of the average hyphae length in the test sample culture divided by the average hyphae length in the control culture in which buffer is added in place of the polypeptide sample.
(§2) The antifungal activity of AlfAFP1 was determined by measuring the inhibition of fungal hyphal length of a number of different fungi in the presence of this polypeptide under an inverted microscope. Fungal spores (2×10^4 spores/ml) were allowed to germinate for 5 to 15 hours, depending on the fungus used in the test, in 50 μl of double strength testing medium. […] For studies on the antagonistic effect of cations, CaCl2 and KCl were added to final concentrations of 1 mM and 50 mM, respectively. This salt-supplemented medium is referred to as “high salt medium,” and the original medium is referred to as “low salt medium.” After spore germination, 50 μl of a filter-sterilized solution of polypeptide in distilled water were added to the testing well containing the germinated spores, and the mixture was incubated for 15 to 24 hours at 24° C. AlfAFP1 was tested in a concentration range from 0 to 80 μg/ml to determine IC50 values. Polypeptide concentrations were determined using the BCA protein assay kit obtained from Pierce (Rockford, Ill.).

[2] = tested on: Verticillium dahliae; test: as above; format: cell-based; conditions: V. dahliae
Method: as §1, §2

[3] = tested on: Verticillium dahliae; test: Verticillium wilt disease test on transgenic potato plants expressing AlfAFP1; format: in vivo, potato plants (Solanum tuberosum var. Russet Burbank)
Method: Conidia and mycelia of a 2-3 week old culture of virulent Verticillium dahliae were used to inoculate a PDA (potatoes, 200 g/l; Bacto dextrose, 20 g/l; and Bacto agar, 15 g/l) Petri plate. This culture was allowed to grow at 22° C. for 4-5 days. Conidia were then harvested by washing the culture plate with sterile distilled water and filtering the liquid through two layers of cheesecloth. The conidial spore concentration was determined using a hemacytometer, and adjusted to 1×10^6 conidia/ml with sterile distilled water.
Transgenic and non-transgenic potato plants were grown from stem cuttings under sterile conditions as described above in plastic cups containing 50 mls of PM-agar medium. When plants were about 1-2 inches tall, they were removed from the medium and their roots were dipped in the spore suspension (Joaquim et al., 1991). The inoculated plants were then transplanted into 6-inch pots containing Metro-Mix 350 soil. After transplanting, each plant received an additional 5 mls of the spore suspension (1×10^6 condida/ml) on the soil surface around the base of the stem. The pots were placed in a growth chamber under the following conditions: temperature at 20° C., light intensity at […], 12 hr day/12 hr night light cycle, subirrigation with water 2 times/day, 20 minutes soaking each time. Four weeks after inoculation, the plants were scored for disease severity on a scale of 0-100% (Horsfall et al., 1945). To develop a disease progress curve over time, plants were rated once a week for at least 8 weeks.
Twenty-one independent transgenic potato lines expressing AlfAFP1 were tested for resistance to Verticillium wilt disease. […]
Table 2 summarizes the qualitative protein expression data for each of the lines, and the disease severity rating of each individual line in the Verticillium wilt disease test determined at 46 days post inoculation. […]

[4] = high salt medium (1 mM CaCl2 and 50 mM KCl added)

AlfAFP1: antifungal polypeptide of 45 amino acids isolated from alfalfa (Medicago) seed, SEQ ID NO:2, about 5,186 daltons (RTCENLADKYRGPCFSGCDTHCTTKENAVSGRCRDDFRCWCTKRC; Alfalfa)
IC50 (concentration required to cause 50% inhibition of fungal hyphal growth), High salt [1, 4]: 15 µg/mL | IC50 (concentration required to cause 50% inhibition of fungal hyphal growth), Low salt ([1]; low salt medium): 1 µg/mL | IC50 (concentration required to cause 50% inhibition of fungal hyphal growth), High salt [2, 4]: 15 µg/mL | IC50 (concentration required to cause 50% inhibition of fungal hyphal growth), Low salt ([2]; low salt medium): 4 µg/mL | Lines with disease severity rated equal to or less than 30% ([3]; AlfAFP1 expressing potato lines, 46 days post inoculation, controls 1 out of 21 and 1 out of 18): Thirteen out of 21 | Average Disease Severity (%) (46 Days Post Inoc.) ([3]; average of 21 AlfAFP1 positive potato lines, non-expressors 62.7, vector control 62.2): 29.6% | Disease severity less than that of the non-expressors or the vector controls ([3]; average of 21 expressor lines versus 21 non-expressor lines or 18 vector control lines, 46 days post inoculation): 52%
